These results are taken from paper PMC7539200, “Glufosinate constrains synchronous and metachronous metastasis by promoting anti‐tumor macrophages” (EMBO Molecular Medicine, 2020).

Assay [1] concerns the target T1, human glutamine synthetase (hGS) (Homo sapiens, UniProt P15104).
T1 construct: gene GLUL
Description: microtiter phosphate-release GS activity assay, Lineweaver-Burk and secondary plot; IC50 […]. Format: biochemical.

For assay [2], the target named is T1, human glutamine synthetase (hGS). The assay is described as above. Format: biochemical. The source holds these as a separate data set.

Each structure is given as a SMILES string. Where two headings read alike, the source gives them in different places.

T1 sequence (P15104 2-373): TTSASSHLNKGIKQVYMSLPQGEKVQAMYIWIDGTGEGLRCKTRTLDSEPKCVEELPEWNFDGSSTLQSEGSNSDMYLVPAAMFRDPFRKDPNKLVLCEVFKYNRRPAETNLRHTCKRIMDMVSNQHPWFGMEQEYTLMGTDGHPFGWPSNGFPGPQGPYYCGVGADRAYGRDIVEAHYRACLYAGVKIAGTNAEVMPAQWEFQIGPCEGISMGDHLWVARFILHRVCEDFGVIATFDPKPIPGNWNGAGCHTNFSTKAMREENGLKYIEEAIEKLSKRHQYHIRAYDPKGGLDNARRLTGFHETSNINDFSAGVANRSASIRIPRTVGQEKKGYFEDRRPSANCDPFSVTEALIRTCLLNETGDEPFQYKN

`CS(=N)(=O)CCC(N)C(=O)O` (centres unmarked) [Methionine sulfoximine] showed an inhibition constant Ki in assay [1] of 880 µM. In assay [2], `CP(=O)(O)CCC(N)C(=O)O` (centres unmarked) [Glufosinate] showed an inhibition constant (Ki) of roughly 19.5 µM.
